# Structures can show the parent of a compound that is named as a salt. Where two headings read alike, the source gives them in different places.
# What was measured:
# NLRP3 inflammasome = assay: IL-1β secretion assay in PMA-differentiated THP-1 cells, nigericin-activated (HTRF); assay type: cell-based
# Method: 10 μL supernatant was removed, and IL-1p levels were monitored using an HTRF assay (CisBio, #621L1PEC) according to manufacturers' instructions. Viability and pyroptosis was monitored with the addition of PrestoBlue cell viability reagent (Life Technologies, #A13261) directly to the cell culture plate.
# (§1) IC50 values were calculated from the plot of percentage of inhibition versus the inhibitor concentration by a logistics fit according to: y=A2+(A1−A2)/(1+(x/IC50)^p) where y is the %-inhibition at the inhibitor concentration, x. A1 is the lowest inhibition value, i.e. 0%, and A2 the maximum inhibition value, i.e. 100%. The exponent, p, is the Hill coefficient. The curve fitting was conducted with an internally developed software suite.
# NLRP3-dependent IL-1β secretion was stimulated in PMA-differentiated THP-1 cells by the addition of nigericin, and cytokines were measured in the […] after 3 hours. As discussed above, activation of the NLRP3 inflammasome requires both an NF-kB-dependent priming step and the addition of a NLRP3 activator.
# [1] = test system: NF-kB-dependent TNF-α secretion; assay: TNF-α secretion assay in THP-1 cells (counter screen, HTRF); assay type: cell-based; settings: Pam3CSK4-stimulated, 3 hours
# Method: Monocytic THP-1 cells were maintained according to providers' instructions in RPMI media as described above. […] Experimental compounds were prepared and added as described above. TNF-α secretion was triggered by the addition of either 1 μg/mL LPS (Sigma, #L4391) or 100 ng/mL Pam3CSK4 (Invivogen, #tlrl-pms) depending on the experiment, and cells were incubated for 3 hours. 10 μL supernatant was removed, and TNF-α levels were monitored using an HTRF assay (CisBio, #62TNFPEC) according to manufacturers' instructions. Viability was monitored as described above.
# as §1, with “suite. […]” for “suite.”
# [2] = Homo sapiens, 15 μM nigericin, 3 hours, read-out: IL-1β IC50
# [3] = read-out: IL-1β IC50, 15 μM nigericin, 3 hours
smiles,measurement,setting,value
"Cc1cc(C(F)(F)F)cc(O)c1-c1ccc(NC[C@H]2CCCN2)nn1 [Ex 14, (R)-3-Methyl-2-(6-((pyrrolidin-2-ylmethyl)amino)pyridazin-3-yl)-5-(trifluoromethyl)phenol]",IC50,NLRP3 inflammasome; [2],85.7 nM
same,IC50,[1]; Homo sapiens,> 100000 nM
"C[C@]1(O)C[C@@H](Nc2cc(C(F)(F)F)c(-c3ccc(C(F)(F)F)cc3O)nn2)C1 [Ex 66, 2-(6-(((cis)-3-Hydroxy-3-methylcyclobutyl)amino)-4-(trifluoromethyl)pyridazin-3-yl)-5-(trifluoromethyl)phenol]",IC50,NLRP3 inflammasome; [2],187 nM
same,IC50,[1]; Homo sapiens,> 33000 nM
"Cc1cc(C(F)(F)F)cc(O)c1-c1ccc(NCC(C)(C)N)nn1 [Ex 29, 2-(6-((2-Amino-2-methylpropyl)amino)pyridazin-3-yl)-3-methyl-5-(trifluoromethyl)phenol]",IC50,NLRP3 inflammasome; [2],169 nM
same,IC50,[1]; Homo sapiens,> 100000 nM
"Cc1cc(C(F)(F)F)cc(O)c1-c1ccc(N[C@@H]2CCCN3CCC[C@H]23)nn1 [Ex 83a, 3-Methyl-2-(6-(((8R,8aR)-octahydroindolizin-8-yl)amino)pyridazin-3-yl)-5-(trifluoromethyl) phenol]",IC50,NLRP3 inflammasome; [2],0.8 nM
same,IC50,[1]; Homo sapiens,> 100000 nM
"Cc1cc(C(F)(F)F)cc(O)c1-c1ccc(N[C@H]2CCCN3CCC[C@@H]23)nn1 [Ex 83b, 3-Methyl-2-(6-(((8S,8aS)-octahydroindolizin-8-yl)amino)pyridazin-3-yl)-5-(trifluoromethyl) phenol]",IC50,NLRP3 inflammasome; [2],69.4 nM
same,IC50,[1]; Homo sapiens,> 100000 nM
"Cc1cc(C(F)(F)F)cc(O)c1-c1ccc(N[C@H]2C[C@](O)(C(F)(F)F)C2)nn1 [Ex 67, 2-(6-(((cis)-3-Hydroxy-3-(trifluoromethyl)cyclobutyl)amino)pyridazin-3-yl)-3-methyl-5-(trifluoromethyl)phenol]",IC50,NLRP3 inflammasome; [2],40.1 nM
same,IC50,[1]; Homo sapiens,46000 nM
"C[C@]1(O)C[C@@H](Nc2cc(C(F)(F)F)c(-c3ccc(Cl)cc3O)nn2)C1 [Ex 69, 5-Chloro-2-(6-(((cis)-3-hydroxy-3-methylcyclobutyl)amino)-4-(trifluoromethyl)pyridazin-3-yl)phenol]",IC50,NLRP3 inflammasome; [2],431 nM
same,IC50,[1]; Homo sapiens,> 33000 nM
"Cc1cc(C(F)(F)F)cc(O)c1-c1ccc(NCc2ccccn2)nn1 [Ex 28, 3-Methyl-2-(6-((pyridin-2-ylmethyl)amino)pyridazin-3-yl)-5-(trifluoromethyl)phenol]",IC50,NLRP3 inflammasome; [2],288 nM
same,IC50,[1]; Homo sapiens,> 100000 nM
"Cc1ncccc1CNc1ccc(-c2c(O)cc(Cl)cc2C(F)(F)F)nn1 [Ex 35, 5-Chloro-2-(6-(((2-methylpyridin-3-yl)methyl)amino)pyridazin-3-yl)-3-(trifluoromethyl)phenol]",IC50,NLRP3 inflammasome; [2],243 nM
same,IC50,[1]; Homo sapiens,> 100000 nM
"Cc1cc(-c2c(C)cc(C(F)(F)F)cc2O)nnc1NC1CCC(=O)N(C)C1 (stereo not shown) [Ex 99, 5-((6-(2-Hydroxy-6-methyl-4-(trifluoromethyl)phenyl)-4-methylpyridazin-3-yl)amino)-1-methylpiperidin-2-one]",IC50,NLRP3 inflammasome; [2],75 nM
same,IC50,[1]; Homo sapiens,> 100000 nM
"Cc1cc(C(F)(F)F)cc(O)c1-c1ccc(NC[C@@](C)(O)CO)nn1 [Ex 88b, (R)-3-((6-(2-Hydroxy-6-methyl-4-(trifluoromethyl)phenyl)pyridazin-3-yl)amino)-2-methylpropane-1,2-diol]",IC50,NLRP3 inflammasome; [2],60.5 nM
same,IC50,[1]; Homo sapiens,> 100000 nM
"Cc1cc(C(F)(F)F)cc(O)c1-c1ccc(N[C@@H]2CCC[C@H]2O)nn1 (relative stereo) [Ex 24, (trans)-2-(6-((2-Hydroxycyclopentyl)amino)pyridazin-3-yl)-3-methyl-5-(trifluoromethyl)phenol]",IC50,NLRP3 inflammasome; [2],120 nM
same,IC50,[1]; Homo sapiens,37000 nM
"Cc1cc(-c2c(C)cc(C(F)(F)F)cc2O)nnc1N[C@@H]1CCC[N+](C)([O-])C1 (stereo partly drawn) [Ex 104, (3R)-3-((6-(2-Hydroxy-6-methyl-4-(trifluoromethyl)phenyl)-4-methylpyridazin-3-yl)amino)-1-methylpiperidine 1-oxide TFA-salt]",IC50,NLRP3 inflammasome; [2],59 nM
same,IC50,[1]; Homo sapiens,> 100000 nM
"Cc1cc(C(F)(F)F)cc(O)c1-c1ccc(NC[C@@H]2C[C@H](F)CN2)nn1 [Ex 75, 2-(6-((((2S,4S)-4-Fluoropyrrolidin-2-yl)methyl)amino)pyridazin-3-yl)-3-methyl-5-(trifluoromethyl)phenol]",IC50,NLRP3 inflammasome; [2],18.3 nM
same,IC50,[1]; Homo sapiens,> 100000 nM
"Cc1cc(C(F)(F)F)cc(O)c1-c1ccc(NCC2COCCN2C)nn1 (racemic) [Ex 77, (rac)-3-Methyl-2-(6-(((4-methylmorpholin-3-yl)methyl)amino)pyridazin-3-yl)-5-(trifluoromethyl)phenol]",IC50,NLRP3 inflammasome; [2],61.9 nM
same,IC50,[1]; Homo sapiens,> 100000 nM
"Cc1cc(C(F)(F)F)cc(O)c1-c1ccc(N[C@@H]2CC[C@@H]3CC[C@H]2N3CCO)nn1 [Ex 86b, 2-(6-(((1R,2R,5R)-8-(2-Hydroxyethyl)-8-azabicyclo[3.2.1]octan-2-yl)amino)pyridazin-3-yl)-3-methyl-5-(trifluoromethyl)phenol]",IC50,NLRP3 inflammasome; [3],1.8 nM
same,IC50,[1],> 100000 nM
"Cc1cc(C(F)(F)F)cc(O)c1-c1ccc(NC[C@@H](F)C(C)(C)O)nn1 [Ex 60, (R)-2-(6-((2-Fluoro-3-hydroxy-3-methylbutyl)amino)pyridazin-3-yl)-3-methyl-5-(trifluoromethyl)phenol]",IC50,NLRP3 inflammasome; [2],140 nM
same,IC50,[1]; Homo sapiens,> 100000 nM
"Cc1ncccc1CNc1ccc(-c2c(O)cc(C(F)(F)F)cc2Cl)nn1 [Ex 34, 3-Chloro-2-(6-(((2-methylpyridin-3-yl)methyl)amino)pyridazin-3-yl)-5-(trifluoromethyl)phenol]",IC50,NLRP3 inflammasome; [2],496 nM
same,IC50,[1]; Homo sapiens,> 100000 nM
"Cc1cc(C(F)(F)F)cc(O)c1-c1ccc(NC[C@H]2CCCCN2)nn1 [Ex 20, (R)-3-Methyl-2-(6-((piperidin-2-ylmethyl)amino)pyridazin-3-yl)-5-(trifluoromethyl)phenol]",IC50,NLRP3 inflammasome; [2],82.3 nM
same,IC50,[1]; Homo sapiens,> 100000 nM
"Cc1cc(N[C@H]2C[C@@](C)(O)C2)nnc1-c1ccc(Cl)cc1O [Ex 68, 5-Chloro-2-(6-(((cis)-3-hydroxy-3-methylcyclobutyl)amino)-4-methylpyridazin-3-yl)phenol]",IC50,NLRP3 inflammasome; [2],89.3 nM
same,IC50,[1]; Homo sapiens,> 100000 nM
"Cc1cc(C(F)(F)F)cc(O)c1-c1ccc(Nc2cncnc2)nn1 [Ex 43, 3-Methyl-2-(6-(pyrimidin-5-ylamino)pyridazin-3-yl)-5-(trifluoromethyl)phenol]",IC50,NLRP3 inflammasome; [2],281 nM
same,IC50,[1]; Homo sapiens,25000 nM
"Cc1cc(C(F)(F)F)cc(O)c1-c1ccc(NC[C@H]2CCCCN2CCO)nn1 [Ex 84a, (R)-2-(6-(((1-(2-Hydroxyethyl)piperidin-2-yl)methyl)amino)pyridazin-3-yl)-3-methyl-5-(trifluoromethyl)phenol]",IC50,NLRP3 inflammasome; [2],42.5 nM
same,IC50,[1]; Homo sapiens,> 100000 nM
"Cc1cc(C(F)(F)F)cc(O)c1-c1ccc(NCC2(O)CCCC2)nn1 [Ex 98, 2-(6-(((1-Hydroxycyclopentyl)methyl)amino)pyridazin-3-yl)-3-methyl-5-(trifluoromethyl)phenol]",IC50,NLRP3 inflammasome; [2],115 nM
same,IC50,[1]; Homo sapiens,> 100000 nM
"Cc1cc(C(F)(F)F)cc(O)c1-c1ccc(N[C@H]2CC[C@H](O)[C@@H]2O)nn1 [Ex 89a, (1S,2R,3S)-3-((6-(2-Hydroxy-6-methyl-4-(trifluoromethyl)phenyl)pyridazin-3-yl)amino) cyclopentane-1,2-diol]",IC50,NLRP3 inflammasome; [2],59.7 nM
same,IC50,[1]; Homo sapiens,> 100000 nM
"Cc1cc(C(F)(F)F)cc(O)c1-c1ccc(N[C@H]2CCC[C@H](O)C2)nn1 [Ex 57, 2-(6-(((1S,3S)-3-Hydroxycyclohexyl)amino)pyridazin-3-yl)-3-methyl-5-(trifluoromethyl)phenol]",IC50,NLRP3 inflammasome; [2],224 nM
same,IC50,[1]; Homo sapiens,84000 nM
"Cc1cc(C(F)(F)F)cc(O)c1-c1ccc(NC[C@](C)(O)C(F)(F)F)nn1 [Ex 78, (S)-3-Methyl-2-(6-((3,3,3-trifluoro-2-hydroxy-2-methylpropyl)amino)pyridazin-3-yl)-5-(trifluoromethyl)phenol HCl-salt]",IC50,NLRP3 inflammasome; [2],198 nM
same,IC50,[1]; Homo sapiens,> 100000 nM
"Cc1cc(C(F)(F)F)cc(O)c1-c1ccc(NCC(O)(C(F)(F)F)C(F)(F)F)nn1 [Ex 10, 3-Methyl-2-(6-((3,3,3-trifluoro-2-hydroxy-2-(trifluoromethyl)propyl)amino)pyridazin-3-yl)-5-(trifluoromethyl)phenol]",IC50,NLRP3 inflammasome; [2],349 nM
same,IC50,[1]; Homo sapiens,> 33000 nM
"Cc1cc(C(F)(F)F)cc(O)c1-c1ccc(NC[C@@H](O)C(C)C)nn1 [Ex 90a, (S)-2-(6-((2-Hydroxy-3-methylbutyl)amino)pyridazin-3-yl)-3-methyl-5-(trifluoromethyl)phenol]",IC50,NLRP3 inflammasome; [2],64.2 nM
same,IC50,[1]; Homo sapiens,> 33000 nM
"Cc1cc(C(F)(F)F)cc(O)c1-c1ccc(N[C@@H]2CC[C@@H]3CC[C@H]2N3C)nn1 [Ex 85b, 3-Methyl-2-(6-(((1R,2R,5R)-8-methyl-8-azabicyclo[3.2.1]octan-2-yl)amino)pyridazin-3-yl)-5-(trifluoromethyl)phenol]",IC50,NLRP3 inflammasome; [3],1.3 nM
same,IC50,[1],> 100000 nM

# — patent publication US11208399B2, “NLRP3 inflammasome inhibitors” (Novartis AG, priority 2019, dated 2021)
